Marks after values point to notes of the source that are not given here.
Tests used:
[1] = Hydrogen peroxide (H2O2) scavenging activity; format: biochemical
Protocol: Hydrogen peroxide scavenging activity of the HC was estimated in this study where initially, HC solutions were prepared at different concentrations in distilled water and the resultant solutions were mixed in 0.6 ml of 40 mM H2O2 solution prepared in phosphate buffer (0.1 M pH 7.4) and incubated for 10 min. The absorbance was measured at 230 nm against a blank solution containing H2O2. Similar procedure was repeated for HC, Mangiferin and Quercetin. The amount of hydrogen peroxide radical inhibited was calculated using the following equation. The result is expressed as % H2O2 radical scavenging activity. H2 O2 radical scavenging activity = {(Abs control−Abs sample) × 100; (Abs control)} [formula] where: • Abs control - Absorbance of H2O2 radical • Abs sample - Absorbance of sample extract/ standard (the HC, mangiferin and quercetin)

[2] = Superoxide Dismutase (SOD) activity / superoxide anion scavenging (NBT/NADH/PMS); format: biochemical; settings: 100 µg/ml (method)
Protocol: The superoxide anion scavenging activity of the HC was measured in this test. 1 ml (156 µM) of Nitro blue tetrazolium (NBT), 1 ml (468 µM) of nicotinamide adenine dinucleotide (NADH) and 3 ml of the HC at 100 µg/ml concentration were admixed in phosphate buffer (pH 7.4). The reaction was started by adding 100 µl of phenazine methosulfate (PMS) (0.18mg/ml) and the mixture was incubated at 25°C for 5 min followed by measuring the absorbance at 560 nm. Similar solutions were prepared for quercetin and mangiferin and the percentage of inhibition was calculated by using the formula provided herein-below; the result was expressed as % superoxide dismutase scavenging activity. % superoxide dismutase inhibition = {(Abs control−Abs sample) × 100; Abs control} [formula] where: • Abs control - Absorbance of control • Abs sample - Absorbance of sample extract/ standard (the HC, mangiferin and quercetin)

[3] = Lipid peroxidation inhibitory assay (TBARS); format: biochemical; settings: Sample Concentration: 100-500µ g/ml
Protocol: A modified Thiobarbituric acid reactive species (TBARS) assay (Ohkowa et al., 1979) is used to measure lipid peroxidation formed using egg yolk homogenate as lipid rich media (Ruberto et al., 2000).
Take 0.5ml of egg homogenate (10%in distilled water) and 0.1 ml of test sample in the concentration range 100-500µ g/ml in a test tube and volume made up to 1 ml by adding distilled water. Finally add 0.05 ml ferrous sulphate (0.07M) to the above mixture and incubate for 30 min to induce the lipid peroxidation. Thereafter add 1.5 ml of 20% acetic acid (pH 3.5) and 1.5 ml of (0.8%in 1.1% SDS) TBA and 0.05 ml (20%) TCA then heated in boiling water bath for 60 min. After cooling 5 ml of butanol will be added to all the test tubes and centrifuged at 3000 rpm for 10 min. Measure the absorbance of the organic upper layer at 532 nm. The percentage inhibition of lipid peroxidation calculated from the formula, % Inhibition = ((Abcontrol−Abtest sample)*100)/(Abcontrol) [formula] where: • Ab (cont) - is the absorbance of the control • Ab (test sample) - is the absorbance of the test sample /standard Table 12 Lipid peroxidation inhibitory assay test results

[4] = target: T1, Porcine Pancreatic Lipase (Sus scrofa, UniProt P00591); test: Anti-lipase assay (triolein emulsion); format: biochemical; settings: Sample Concentration: 1.2 mg/ml; 37 °C, 30 min
T1 sequence (P00591 1-450): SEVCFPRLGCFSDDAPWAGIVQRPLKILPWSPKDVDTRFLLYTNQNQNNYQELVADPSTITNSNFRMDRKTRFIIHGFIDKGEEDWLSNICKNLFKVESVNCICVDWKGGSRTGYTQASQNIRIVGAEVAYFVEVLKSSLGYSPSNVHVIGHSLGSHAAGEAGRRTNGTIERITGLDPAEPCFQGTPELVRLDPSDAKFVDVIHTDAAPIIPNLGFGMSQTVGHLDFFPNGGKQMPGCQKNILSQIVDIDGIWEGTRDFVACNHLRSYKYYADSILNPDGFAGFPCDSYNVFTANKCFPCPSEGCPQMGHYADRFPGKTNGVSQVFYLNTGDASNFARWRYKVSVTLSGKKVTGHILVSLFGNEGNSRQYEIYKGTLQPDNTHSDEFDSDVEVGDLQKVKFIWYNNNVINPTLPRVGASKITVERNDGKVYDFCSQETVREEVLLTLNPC
Protocol: A suspension containing 1% (V/V) of triolein and 1% (V/V) of tween 40 in 0.1M phosphate buffer (pH-8) was prepared and emulsified. The assay was initiated by adding 800µl of the Triolein emulsion to 200µl of Porcine Pancreatic Lipase (0.5 g Pancreatic Lipase in 15 ml of 0.1 M phosphate buffer at pH-8) and 200 µl of the HC extract (100 µg/ml concentration). The resultant mixture was mixed and the absorbance was measured immediately at 450 nm (T^0). The mixtures were then incubated at 37 °C for 30 min and the absorption was measured at 450 nm (T^30). Inhibition % = {A(cont)−A(test) × 100; A(cont)} [formula] where: • A(cont) - is the absorbance of the control (TC^0-TC^30) • A(test) - is the absorbance of the sample test /standard (T^0-T^30) (the HC, mangiferin and quercetin)

high fat diet fed rats = test: Anti-obesity activity in high fat diet fed rats; format: in vivo, Male Wistar rats; settings: male rats, Orlistat 30 mg/kg (Group III)
Protocol: Objective: The objective was to investigate the effect of the HC against high fat diet fed rats. Animals: Male Wistar rats (160 to 200 g); No of animals: 36; Housing: 3/ cage, 12 hrs light/dark cycle; Temperature: 25±2°c; Model & Composition of the Diet: High fat diet in rats: 25% Lard, 5% Soyabean oil; 5% starch; 65% Normal commercial available rat feed; Groups: Male Wistar rats were divided into six groups with six animals in each group [table]

Molecule `O=c1c(O)c(-c2ccc(O)c(O)c2)oc2cc(O)cc(O)c12` [Quercetin (Standard), Quercetin] has an H2O2 scavenging activity ([1]; 10 µg/ml) of 5.6%, an H2O2 scavenging activity ([1]; 20 µg/ml) of 14.55% and an H2O2 scavenging activity ([1]; 30 µg/ml) of 18.86%. The H2O2 scavenging activity ([1]; 40 µg/ml) was 33.96%, the “SOD activity % Inhibition” value [2] was 51.03% and the “Lipid peroxidation inhibitory assay % inhibition” value [3] was 53.44%.

With `CCCCCCCCCCC[C@@H](C[C@@H]1OC(=O)[C@H]1CCCCCC)OC(=O)[C@H](CC(C)C)NC=O` [Orlistat] the inhibition at 1200 µg/mL [4] was 75.3%, the Initial weight (high fat diet fed rats; baseline, in g (unit assumed)) was 182.00±0.96 and the “Atherogenic Index” value (high fat diet fed rats) was 1.39±0.15***^b. For the same molecule, the Average food intake (high fat diet fed rats) was 13.45±0.28^nsb g/rat, the BAT (high fat diet fed rats) was 0.28± 0.01^nsb and the “Difference in body weight gain” value (high fat diet fed rats) was 79.82±2.58***^b. For the same molecule, the “Epididymal fat pad Left” value (high fat diet fed rats) was 0.52± 0.03^nsb, the “Epididymal fat pad Right” value (high fat diet fed rats) was 0.55± 0.02^nsb and the “Fecal fatty acid estimation” value (high fat diet fed rats) was 4.1±0.26*^b. For the same molecule, the Insulin (high fat diet fed rats) was 0.15±0.005^nsb mU/L, the “Liver (organ weight)” value (high fat diet fed rats) was 2.8±0.08 ***^b and the Liver triglycerides (high fat diet fed rats) was 87.77±2.28*^b. For the same molecule, the Mesenteric fat (high fat diet fed rats) was 1.02±0.07 ^nsb, the “Perirenal fat pad tissue Left” value (high fat diet fed rats) was 0.77± 0.08*^b and the “Perirenal fat pad tissue Right” value (high fat diet fed rats) was 0.77±0.08*^b. For the same molecule, the “serum Glucose” value (high fat diet fed rats) was 92.00±2.89**^b mg/dL, the Final weight (high fat diet fed rats; in g (unit assumed)) was 261.80±2.53 and the HDL-c (high fat diet fed rats; serum) was 21.72±1.22**^b mg/dL. For the same molecule, the LDL-c (high fat diet fed rats; serum) was 13.20±1.71**^b mg/dL, the Total cholesterol (high fat diet fed rats; serum) was 50.91±0.62***^b mg/dL and the Triglyceride (high fat diet fed rats; serum) was 79.96±1.13***^b mg/dL.

For `O=c1c2cc(O)c(O)cc2oc2cc(O)c([C@@H]3O[C@H](CO)[C@@H](O)[C@H](O)[C@H]3O)c(O)c12` [Mangiferin 98%, Mangiferin], the inhibition at 1200 µg/mL [4] was 41.8%.

Source: patent publication EP3009138B1, “MANGIFERA EXTRACT FOR THE MANAGEMENT OF OBESITY AND/OR WEIGHT” (Kodimule, Shyam Prasad, priority 2014, dated 2016)
